Source: patent US20220386606A1, “SPECIFICALLY SUBSTITUTED 3-PHENYL-5-SPIROCYCLOPENTYL-3-PYRROLIN-2-ONES AND THEIR USE AS HERBICIDES” (Bayer Aktiengesellschaft, priority 2019, published 2022)

Key:
[1] = tested on: SETVI; experiment: Pre-emergence herbicidal action against SETVI; format: in vivo, Setaria viridis; details: 320 g/ha, scored visually after 3 weeks vs untreated controls
How it was run: (§1)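 Herbicidal activity is expressed as percent visual damage compared with untreated controls, where 100% means dead plants, assessed 3 weeks after pre-emergence treatment of sown, soil-covered seeds in sandy loam under greenhouse conditions.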

[2] = tested on: DIGSA; experiment: Pre-emergence herbicidal action against DIGSA; format: in vivo, Digitaria sanguinalis; details: 320 g/ha, scored visually after 3 weeks vs untreated controls
How it was run: as §1

[3] = tested on: ECHCG; experiment: Post-emergence herbicidal action against ECHCG; format: in vivo, Echinochloa crus-galli; details: 80 g/ha, visual assessment about 3 weeks after treatment vs untreated controls
How it was run: (§2)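 Weeds were grown in sandy loam in a greenhouse and treated at the one-leaf stage, 2 to 3 weeks after sowing. WP or EC formulations were sprayed onto green parts at 600 to 800 l/ha water with 0.2% wetting agent. Visual % action versus untreated controls was scored after about 3 weeks.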

[4] = tested on: LOLRI; experiment: Pre-emergence herbicidal action against LOLRI (Table 8, titled post-emergence at 320 g/ha); format: in vivo, Lolium rigidum; details: table stands in the pre-emergence section
How it was run: as §1

[5] = tested on: DIGSA; experiment: Post-emergence herbicidal action against DIGSA; format: in vivo, Digitaria sanguinalis; details: 80 g/ha, visual assessment about 3 weeks after treatment vs untreated controls
How it was run: as §2

[6] = tested on: LOLRI; experiment: Post-emergence herbicidal action against LOLRI; format: in vivo, Lolium rigidum; details: 80 g/ha, visual assessment about 3 weeks after treatment vs untreated controls
How it was run: as §2

[7] = tested on: VERPE; experiment: Pre-emergence herbicidal action against VERPE; format: in vivo, Veronica persica; details: 320 g/ha
How it was run: as §1

[8] = tested on: POLCO; experiment: Post-emergence herbicidal action against POLCO; format: in vivo, Polygonum convolvulus; details: 80 g/ha, visual assessment about 3 weeks after treatment vs untreated controls
Method: (§3) Seeds of monocotyledonous and dicotyledonous weed and crop plants are laid out in sandy loam soil in wood-fiber pots, covered with soil and cultivated in a greenhouse under good growth conditions. 2 to 3 weeks after sowing, the test plants are treated at the one-leaf stage. The compounds of the invention, formulated in the form of wettable powders (WP) or as emulsion concentrates (EC), are then sprayed onto the green parts of the plants as aqueous suspension or emulsion at a water application rate equating to 600 to 800 l/ha with addition of 0.2% wetting agent. After the test plants have been left to stand in the greenhouse under optimal growth conditions for about 3 weeks, the action of the preparations is assessed visually in comparison to untreated controls (herbicidal action in percent (%): 100% activity=the plants have died, 0% activity=like control plants).

[9] = tested on: VIOTR; experiment: Pre-emergence herbicidal action against VIOTR; format: in vivo, Viola tricolor; details: 320 g/ha
How it was run: as §1

[10] = tested on: SETVI; experiment: Post-emergence herbicidal action against SETVI; format: in vivo, Setaria viridis; details: 80 g/ha, visual assessment about 3 weeks after treatment vs untreated controls
How it was run: as §2

[11] = tested on: ECHCG; experiment: Pre-emergence herbicidal action against ECHCG; format: in vivo, Echinochloa crus-galli; details: 320 g/ha, scored visually after 3 weeks vs untreated controls
How it was run: as §1

[12] = tested on: ALOMY; experiment: Post-emergence herbicidal action against ALOMY; format: in vivo, Alopecurus myosuroides; details: 80 g/ha, visual assessment after about 3 weeks
How it was run: as §2

[13] = tested on: VERPE; experiment: Post-emergence herbicidal action against VERPE; format: in vivo, Veronica persica; details: 80 g/ha, visual assessment about 3 weeks after treatment vs untreated controls
Method: as §3

[14] = tested on: ALOMY; experiment: Pre-emergence herbicidal action against ALOMY; format: in vivo, Alopecurus myosuroides; details: 320 g/ha, scored visually after 3 weeks vs untreated controls
How it was run: as §1

[15] = tested on: AVEFA; experiment: Pre-emergence herbicidal action against AVEFA; format: in vivo, Avena fatua; details: 320 g/ha, scored visually after 3 weeks vs untreated controls
How it was run: as §1

[16] = tested on: PHBPU; experiment: Pre-emergence herbicidal action against PHBPU; format: in vivo; details: scored visually after 3 weeks, 100% = plants have died, 0% = like control plants
Source text: Seeds of monocotyledonous and dicotyledonous weed plants and crop plants are laid out in sandy loam soil in wood-fiber pots and covered with soil. The compounds of the invention, formulated in the form of wettable powders (WP) or as emulsion concentrates (EC), are then applied to the surface of the covering soil as aqueous suspension or emulsion at a water application rate equating to 600 to 800 L/ha with addition of 0.2% wetting agent.
After the treatment, the pots are placed in a greenhouse and kept under good growth conditions for the trial plants. The damage to the test plants is scored visually after a test period of 3 weeks by comparison with untreated controls (herbicidal activity in percent (%): 100% activity=the plants have died, 0% activity=like control plants).

[17] = tested on: MATIN; experiment: Pre-emergence herbicidal action against MATIN; format: in vivo; details: 320 g/ha
How it was run: as §1

[18] = tested on: ABUTH; experiment: Post-emergence herbicidal action against ABUTH; format: in vivo, Abutylon threophrasti; details: 80 g/ha, visual assessment about 3 weeks after treatment vs untreated controls
How it was run: as §2

[19] = tested on: AMARE; experiment: Pre-emergence herbicidal action against AMARE; format: in vivo, Amaranthus retroflexus; details: 320 g/ha
How it was run: as §1

[20] = tested on: POLCO; experiment: Pre-emergence herbicidal action against POLCO; format: in vivo, Polygonum convolvulus; details: 320 g/ha
How it was run: as §1

[21] = tested on: ABUTH; experiment: Pre-emergence herbicidal action against ABUTH; format: in vivo, Abutylon threophrasti; details: 320 g/ha
How it was run: as §1

[22] = tested on: PHBPU; experiment: Post-emergence herbicidal action against PHBPU; format: in vivo; details: assessed visually after about 3 weeks, 100% = plants have died, 0% = like control plants
Method: as §3

[23] = tested on: HORMU; experiment: Post-emergence herbicidal action against HORMU; format: in vivo, Hordeum murinum; details: 80 g/ha, visual assessment about 3 weeks after treatment vs untreated controls
How it was run: as §2

[24] = tested on: VIOTR; experiment: Post-emergence herbicidal action against VIOTR; format: in vivo, Viola tricolor; details: 80 g/ha, visual assessment about 3 weeks after treatment vs untreated controls
How it was run: as §2

[25] = tested on: AVEFA; experiment: Post-emergence herbicidal action against AVEFA; format: in vivo, Avena fatua; details: 80 g/ha, visual assessment after about 3 weeks
How it was run: as §2

Structure (SMILES)	Pre-emergence action against SETVI in % [1] [%]	Pre-emergence action against DIGSA in % [2] [%]	Post-emergence action against ECHCG in % [3] [%]	Pre-emergence herbicidal action against LOLRI in % [4] [%]	Post-emergence action against DIGSA in % [5] [%]	Post-emergence action against LOLRI in % [6] [%]	Post-emergence action against POLCO in % [8] [%]	Pre-emergence action against VIOTR in % [9] [%]	Post-emergence action against SETVI in % [10] [%]	Pre-emergence action against ECHCG in % [11] [%]	Post-emergence action against ALOMY in % [12] [%]	Pre-emergence action against ALOMY in % [14] [%]	Pre-emergence action against AVEFA in % [15] [%]	Post-emergence action against ABUTH in % [18] [%]	Pre-emergence action against POLCO in % [20] [%]	further results
CC#Cc1cc(Br)c(C2=C(O)[C@]3(CC[C@H](COCC)C3)NC2=O)c(OC)c1 (stereo in doubt) [Example I-11, 3-(2-Bromo-6-methoxy-4-prop-1-ynylphenyl)-8-(ethoxymethyl)-4-hydroxy-1-azaspiro[4.4]non-3-en-2-one]	100	100	100	100	100	100	80	90	100	100	100	100	100	–	–	Pre-emergence action against VERPE in % [7]: 100%; Post-emergence action against VERPE in % [13]: 80%
CC#Cc1cc(Br)c(C2=C(OC(=O)OCC)[C@]3(CC[C@H](COCC)C3)NC2=O)c(OC)c1 (stereo in doubt) [Example P-13, [3-(2-Bromo-6-methoxy-4-prop-1-ynyl-phenyl)-8-(ethoxymethyl)-2-oxo-1-azaspiro[4.4]non-3-en-4-yl] ethyl carbonate]	100	100	100	100	100	100	–	100	100	100	100	100	100	80	80	Pre-emergence action at 320 g/ha against PHBPU in % [16]: 100%; Pre-emergence action against MATIN in % [17]: 80%; Pre-emergence action against AMARE in % [19]: 90%
CC#Cc1cc(Br)c(C2=C(O)C3(CCC(COCC)C3)NC2=O)c(OC)c1 (centres unmarked) [Example I-05]	100	100	100	100	100	100	100	90	100	100	100	100	100	80	80	Pre-emergence action against ABUTH in % [21]: 80%; Post-emergence action at 80 g/ha against PHBPU in % [22]: 80%
CC#Cc1cc(C)c(C2=C(OC(=O)C(C)C)C3(CCC(COC)C3)NC2=O)c(Cl)c1 (centres unmarked) [Example P-16]	–	–	100	–	100	100	80	–	100	–	100	–	–	80	–	Post-emergence action against HORMU in % [23]: 100%; Post-emergence action against VIOTR in % [24]: 80%; Post-emergence action against AVEFA in % [25]: 100%
